Test results published in paper PMC10914731, “Homo-BacPROTAC-induced degradation of ClpC1 as a strategy against drug-resistant mycobacteria” (Nature Communications, 2024).
“And” between values parts separate entries of the source, which are not always exact repeats. Equal values may be shown once. “Also recorded” adds a separate entry of the source. Read-outs that look alike come from different tables or passages of the source. *1 amine or outer side, *2 acyl side, *3 side chain or, on linkers, in order; H or OH if unused. Where a SMILES comes first, the peptide text is derived from it. [ ]: non-standard residue; d: D form. X9 = C=CC(C)(C)n1cc(C[C@@H](C(=O)[*:2])N(C)[*:1])c2ccccc21; Ala(3R-Me,3-isobutenyl) = CC(C)=C[C@@H](C)[C@H](N)C(=O)O; NMeLeu(5-OH,4R) = CN[C@@H](C[C@@H](C)CO)C(=O)O; Phe(βR-OMe) = CO[C@H](c1ccccc1)[C@H](N)C(=O)O; NMeL = CN[C@@H](CC(C)C)C(=O)O

Columns and labels:
[1] = type: in vitro ADME, Rat
Description: (§1) Cryopreserved hepatocytes are incubated in an appropriate buffer system containing 50% species serum. Following an acclimation period (15–30 min) in an incubator (37 °C, 5−10% CO2, 85–95% humidity) the test compound is added to the hepatocyte suspension (pH 7.4, typical cell density of about 1 million cells/mL; final concentration of test compound is 1 µM, final DMSO concentration <0.05% v/v). The cells are incubated for up to 6 h and samples are taken at 6 different time points. Samples are then quenched with acetonitrile and pelleted by centrifugation. The remaining amount of parent compound in the supernatants is then analysed by HPLC-MS/MS. Clearance is calculated from compound half-lives using the well-stirred liver model and is converted to clearance stated as % of the liver blood flow (% Qh).

Caco-2 monolayers = assay: in vitro
Excerpt: (§2) Supplementary Table 1. Structure-Activity Relationships part 1 (SPR, Caco-2) […]
(§3) SPR. Mean values ± standard deviation. Footnotes indicate the number of measurements performed for the respective compound: a) n = […]
(§4) [5] Permeability across Caco-2 monolayers in P(A−B): apical to basolateral and P(B−A): basolateral to apical direction (values reported in 10-
(§5) 6 cm s-1); efflux ratio = P(B−A)/P(A−B); Int. perm: mean value of P(A−B) and P(B−A). […] Influence of Trp-Nα methylation on P(A-B) and efflux
(§6) ratio. Bold: positive influence.

in vitro = settings: human; for Papp A→B: apical to basolateral; for Papp B→A: basolateral to apical
Excerpt: as §2, §3, §4, §5, §6

[2] = target: ClpC1-NTD substrate, M. tuberculosis ClpC1P1P2 (Mycobacterium tuberculosis, UniProt P9WPC9); assay: biochemical; type: biochemical; settings: Mtb
[3] = target: ClpC1 NTD protein (M. tuberculosis) (Mycobacterium tuberculosis, UniProt P9WPC9); assay: biochemical; type: binding
[4] = target: His6-tagged ClpC1-NTD substrate, M. smegmatis ClpC1P1P2 (UniProt A0R574+P9WPC9); assay: biochemical; type: biochemical; settings: Msm
[5] = Hepatocyte stability, mice; type: in vitro ADME
Description: as §1

[6] = type: in vitro ADME, Human
Description: as §1

[7] = system: non-replicating cells of Mtb H37Rv; type: cell-based, Mycobacterium tuberculosis; settings: for Supplementary Figure 2 dose-response value, starvation-induced non-replicating H37Rv cells: three replicate columns
[8] = mean of the measurements, read-out: 1-Dmax, Mean
[9] = mean of the measurements, read-out: DC50, Mean

SMILES: CO[C@H](c1ccccc1)[C@@H]1NC(=O)[C@H](C)NC(=O)[C@H](C[C@@H](C)CO)N(C)C(=O)[C@H](Cc2cn(C)c3ccccc23)N(C)C(=O)[C@H](Cc2cn(CCOCCOCCn3cc(C[C@@H]4NC(=O)[C@H](CC(C)C)N(C)C(=O)[C@H](C(C)C)NC(=O)[C@H]([C@H](OC)c5ccccc5)NC(=O)[C@H](C)NC(=O)[C@H](C[C@@H](C)CO)N(C)C(=O)[C@H](Cc5cn(C)c6ccccc56)N(C)C4=O)nn3)nn2)NC(=O)[C@H](CC(C)C)N(C)C(=O)[C@H](C(C)C)NC1=O [Compound 21]
- Hepatocyte Rat ([1]; clearance in hepatocytes): 6 %Qh
- Permeability Correlation P (A-B) (Caco-2 monolayers; influence of Trp-Nα methylation on P(A-B), matched pair, listed under the methylated partner): 0.3
- Permeability Correlation Ratio (Caco-2 monolayers; influence of Trp-Nα methylation on efflux ratio, matched pair, listed under the methylated partner): 4.33
- Caco-2 Int. Perm (Caco-2 monolayers; mean value of P(A−B) and P(B−A)): 0.4 10-6 cm s-1
- Papp A→B (in vitro; Caco-2, CACO permeability PEAB): < 0.49 ×10⁻⁶ cm/s
- Papp B→A (in vitro; Caco-2, CACO permeability PEBA): < 0.29 ×10⁻⁶ cm/s
- Papp A→B (in vitro; Caco-2, Caco-2 permeability P (A-B)): < 0.5 ×10⁻⁶ cm/s
- Papp B→A (in vitro; Caco-2, Caco-2 permeability P (B-A)): < 0.3 ×10⁻⁶ cm/s
- 1-Dmax, single measurements ([2]; Measurement 1-4): 91.1% and 78.4%
- 1-Dmax (percent substrate remaining at maximal degradation) ([2]; Measurement 1-4, read-out: 1-Dmax, single measurements): 82.9%
- DC50 ([2]; Measurement 1-4, read-out: DC50, single measurements): 9.5 µM and 7.3 µM and 9 µM
- 1-Dmax (percent substrate remaining at maximal degradation) [2, 8]: 84%
- DC50 [2, 9]: 8.6 µM
- Kd ([3]; SPR (Supplementary Table 1), read-out: KD ClpC1-NTD Mean ± SD): 0.0036 ± 0.0009 µM
- koff ClpC1-NTD ([3]; SPR, single independent measurements): 0.005 s⁻¹
- Kd ([3]; SPR, single independent measurements, read-out: KD ClpC1-NTD): 0.00419 µM and 0.00293 µM
- koff ([3]; SPR, single independent measurements, read-out: koff ClpC1-NTD): 0.01 s⁻¹
- 1-Dmax, single measurements ([4]; Measurement 1-6): 92.1% and 86.2% and 93.5%
- 1-Dmax (percent substrate remaining at maximal degradation) ([4]; Measurement 1-6, read-out: 1-Dmax, single measurements): 95.3%
- DC50 ([4]; Measurement 1-6, read-out: DC50, single measurements): 4.5 µM and 6.1 µM and 6.8 µM and 4.7 µM
- 1-Dmax (percent substrate remaining at maximal degradation) [4, 8]: 92%
- DC50 [4, 9]: 5.5 µM
- Hepatocyte Mice ([5]; clearance in hepatocytes): 15 %Qh

SMILES: C=CC(C)(C)n1cc(C[C@H]2C(=O)N(C)[C@@H](C[C@@H](C)CO)C(=O)N[C@@H](C)C(=O)N[C@@H]([C@H](OC)c3ccccc3)C(=O)N[C@@H](C(C)C)C(=O)N(C)[C@@H](CC(C)C)C(=O)N[C@@H]([C@H](C)C=C(C)C)C(=O)N2C)c2ccccc21 [Compound 23] (cyclo(A[Phe(βR-OMe)]V[NMeL][Ala(3R-Me,3-isobutenyl)][X9][NMeLeu(5-OH,4R)]))
- Hepatocyte Rat [1]: 57 %Qh
- Hepatocyte Stability Rat QH [1]: 57.093%
- Caco-2 Efflux ratio (Caco-2 monolayers; Caco-2): 1.9
- Caco-2 Int. Perm (Caco-2 monolayers; Caco-2): 5.6 10-6 cm s-1
- Caco-2 permeability P (B-A) (Caco-2 monolayers; Caco-2): 7.3 10-6 cm s-1
- Permeability Correlation P (A-B) (Caco-2 monolayers; Caco-2): 3
- Permeability Correlation Ratio (Caco-2 monolayers; Caco-2): 1.57
- koff ClpC1-NTD [3]: 1E-2 1E-1 1/s
- Kd ([3]; read-out: ClpC1-NTD KD Mean ± SD): 0.0121 ± 0.0003 µM
- Kd ([3]; read-out: KD ClpC1-NTD): 0.0119 µM and 0.0123 µM
- Hepatocyte Human [6]: 13 %Qh
- Hepatocyte Stability Human QH [6]: 12.924%
- Hepatocyte Mice [5]: 15 %Qh
- Hepatocyte Stability Mouse QH [5]: 15.001%

SMILES: COc1nc2ccc(Br)cc2cc1[C@@H](c1ccccc1)[C@@](O)(CCN(C)C)c1cccc2ccccc12 [bedaquiline, reference compound]
- Supplementary Figure 2 dose-response value, starvation-induced non-replicating H37Rv cells ([7]; Conc. 0.0488281 µM): 97.9668 and 91.6487 and 83.6576
- Supplementary Figure 2 dose-response value, starvation-induced non-replicating H37Rv cells ([7]; Conc. 0.0976562 µM): 87.5536 and 80.0883 and 83.2831
- Supplementary Figure 2 dose-response value, starvation-induced non-replicating H37Rv cells ([7]; Conc. 0.195312 µM): 81.2913 and 74.9255 and 79.1163
- Supplementary Figure 2 dose-response value, starvation-induced non-replicating H37Rv cells ([7]; Conc. 0.390625 µM): 67.5239 and 65.9305 and 69.4679
- Supplementary Figure 2 dose-response value, starvation-induced non-replicating H37Rv cells ([7]; Conc. 0.78125 µM): 52.5057 and 55.0074 and 53.3502
- Supplementary Figure 2 dose-response value, starvation-induced non-replicating H37Rv cells ([7]; Conc. 1.5625 µM): 41.001 and 43.3673 and 39.2641
- Supplementary Figure 2 dose-response value, starvation-induced non-replicating H37Rv cells ([7]; Conc. 3.125 µM): 37.9814 and 32.1972 and 36.5553
- Supplementary Figure 2 dose-response value, starvation-induced non-replicating H37Rv cells ([7]; Conc. 6.25 µM): 35.7825 and 30.8268 and 30.7073
- Supplementary Figure 2 dose-response value, starvation-induced non-replicating H37Rv cells ([7]; Conc. 25 µM): 59.8834 and 41.1683 and 41.1444
- Supplementary Figure 2 dose-response value, starvation-induced non-replicating H37Rv cells ([7]; Conc. 50 µM): 53.645 and 33.4003 and 40.7939
- Supplementary Figure 2 dose-response value, starvation-induced non-replicating H37Rv cells ([7]; Conc. 100 µM): 48.6735 and 37.8778 and 36.7226
- inhibitory activity on non-growing Mtb H37Rv ([7]; starvation for three weeks, result in words): partial remaining activity; also recorded: retained a partial inhibitory activity
